Assay results as given in patent publication US20100256069A1, “TARGETED INDUCTION OF AGGREGATION OF PROTEINS WITH CROSS BETA STRUCTURES” (VIB VZM, priority 2007, published 2010).
The star is where a group is joined. Biotin = O=C1N[C@H]2[C@H](CS[C@H]2CCCCC(=O)*)N1

Target: streptavidin-HRP fusion protein (Streptomyces avidinii, UniProt P22629)
Assay: Depletion of streptavidin-HRP from solution by co-aggregation (residual HRP activity in supernatant, TMB readout)
Conditions: aggregator 1 μM, streptavidin-HRP diluted 1:20,000 in PBS, overnight, room temperature, 750 rpm; FIG. 1
Experimental: In order to show depletion between the fusion protein HRP-streptavidin from solution due to co-aggregation with the aggregator, we co-incubated the aggregator with the streptavidin-HRP fusion protein. […] To this end, a streptavidin-HRP stock solution (AbD Serotec, product number 710005) was diluted 1:20,000 in PBS and incubated with the aggregator at a final concentration of 1 μM. The samples were incubated overnight with agitation at 750 rpm at room temperature. A control sample consisting of the fusion protein SA-HRP alone in identical buffer (PBS plus 10% DMSO) was included. […] After overnight incubation, co-aggregated material was removed from the sample by centrifugation for 15 min at 17,000 g in a cooled bench top microfuge at 10° C. Of the supernatant, 10 μL was recovered and added in a 96 well plate (Falcon, 353072) to 90 μL of TMB solution. This mixture was incubated at room temperature for 1 minute, after which the colorimetric reaction was arrested by the addition of 100 μL of 2 M H2SO4. The absorbance of the resulting yellow product was measured at OD450nm using an Ultra Microplate Reader (BioTEK, ELx808IU).

streptavidin-HRP fusion protein, sequence (P22629 25-183): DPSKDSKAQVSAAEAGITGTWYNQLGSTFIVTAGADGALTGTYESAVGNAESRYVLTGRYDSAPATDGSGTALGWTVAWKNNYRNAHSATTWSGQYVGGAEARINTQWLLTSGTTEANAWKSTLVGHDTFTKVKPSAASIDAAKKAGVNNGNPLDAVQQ
streptavidin-HRP fusion protein, sequence (P00433 31-338, further chain): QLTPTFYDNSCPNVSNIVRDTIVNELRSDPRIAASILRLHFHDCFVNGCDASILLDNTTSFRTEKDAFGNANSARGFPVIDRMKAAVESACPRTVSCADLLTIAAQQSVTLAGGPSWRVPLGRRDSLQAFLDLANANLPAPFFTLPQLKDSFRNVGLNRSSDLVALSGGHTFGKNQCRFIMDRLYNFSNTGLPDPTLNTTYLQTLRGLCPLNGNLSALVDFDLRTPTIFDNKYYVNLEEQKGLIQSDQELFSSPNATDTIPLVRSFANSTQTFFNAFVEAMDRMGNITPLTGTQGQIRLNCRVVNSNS

Biotin-ALAVVLQ-NH2
residual percentage HRP activity in the supernatant after removal of the co-aggregates by centrifugation: clearly removes the enzyme from the soluble fraction
